Test results reported in PMC11855827, “High-Throughput Screening of Five Compound Libraries for Anthelmintic Activity and Toxicity Leads to the Discovery of Two Flavonoid Compounds” (International Journal of Molecular Sciences, 2025).
Where two headings read alike, the source gives them in different places.

Tested on: C. elegans
Test: microbe, parasite or virus in culture
Details: Caenorhabditis elegans
[1] = 0 h, read-out: Percentage of motility inhibition 0 h, Table S2, C. elegans SS assay, 110 μM, 0 h, averages of 4 data points
[2] = 24 h, read-out: Percentage of motility inhibition 24 h, Table S2, C. elegans SS assay, 110 μM, 24 h, averages of 4 data points

Clc1ccc(C(Cn2ccnc2)OCc2ccsc2Cl)c(Cl)c1 (stereo not drawn) [Tioconazole]
inhibition at 110 µM [1]: 30%
inhibition at 110 µM [2]: 43%

C=C1C[C@@]23CC[C@H]4[C@@](C)(CCC[C@@]4(C)C(=O)O[C@@H]4O[C@H](CO)[C@@H](O)[C@H](O)[C@H]4O)[C@@H]2CC[C@]1(O[C@@H]1O[C@H](CO)[C@@H](O)[C@H](O)[C@H]1O[C@@H]1O[C@H](CO)[C@@H](O)[C@H](O)[C@H]1O)C3 [Stevioside]
inhibition at 110 µM [1]: 15%
inhibition at 110 µM [2]: 0%

O=c1c(O)c(-c2ccc(O)c(O)c2)oc2cc(O)cc(O)c12 [Quercetin]
inhibition at 110 µM [1]: 24%
inhibition at 110 µM [2]: 11%

O[C@H]1[C@H](O)[C@@H](O)[C@H](O)[C@@H](O)[C@H]1O [i-Inositol]
inhibition at 110 µM [1]: 0%
inhibition at 110 µM [2]: 0%

CN1CC[C@]23C(=O)C[C@H]4C(=CCO[C@H]5CC(=O)N(c6c(O)cccc62)[C@H]3[C@H]54)C1 [Vomicine]
inhibition at 110 µM [1]: 0%
inhibition at 110 µM [2]: 0%

COc1ccc(-c2cc(=O)c3c(O)c(OC)c(O)c(OC)c3o2)cc1 [Nevadensin]
inhibition at 110 µM [1]: 39%
inhibition at 110 µM [2]: 0%

C[C@]12CC[C@@H]3c4ccc(O)cc4CC[C@H]3[C@@H]1CC[C@@H]2O [Estradiol]
inhibition at 110 µM [1]: 1%
inhibition at 110 µM [2]: 2%

CC(C)=CCC[C@](C)(O[C@@H]1O[C@H](CO)[C@@H](O)[C@H](O)[C@H]1O)[C@H]1CC[C@]2(C)[C@@H]1[C@H](O)C[C@@H]1[C@@]3(C)CC[C@H](O)C(C)(C)[C@@H]3[C@@H](O[C@@H]3O[C@H](CO)[C@@H](O)[C@H](O)[C@H]3O[C@@H]3O[C@@H](C)[C@H](O)[C@@H](O)[C@H]3O)C[C@]12C [Ginsenoside Re]
inhibition at 110 µM [1]: 0%
inhibition at 110 µM [2]: 0%

CC(C)=CCC[C@](C)(O[C@@H]1O[C@H](CO)[C@@H](O)[C@H](O)[C@H]1O)[C@H]1CC[C@]2(C)[C@@H]1[C@H](O)C[C@@H]1[C@@]3(C)CC[C@H](O)C(C)(C)[C@@H]3[C@@H](O)C[C@]12C [Ginsenoside F1]
inhibition at 110 µM [1]: 10%
inhibition at 110 µM [2]: 2%

COc1ccc([C@@H]2CC(=O)c3c(O)cc(O)cc3O2)cc1O [Hesperetin]
inhibition at 110 µM [1]: 21%
inhibition at 110 µM [2]: 5%

CC1(C)C[C@@H](O)[C@]2(C)CC[C@]3(C)C(=CC[C@@H]4[C@@]5(C)CC[C@H](O)[C@](C)(CO)[C@@H]5CC[C@]43C)[C@@H]2C1 [Soyasapogenol B]
inhibition at 110 µM [1]: 9%
inhibition at 110 µM [2]: 39%

O=c1c(O[C@@H]2O[C@H](CO)[C@@H](O)[C@H](O)[C@H]2O)c(-c2ccc(O)cc2)oc2cc(O)cc(O)c12 [Astragalin]
inhibition at 110 µM [1]: 1%
inhibition at 110 µM [2]: 1%

O=C(O)[C@@H]1[C@H]2C[C@H]3c4[nH]c5ccccc5c4CCN3C[C@@H]2CC[C@@H]1O [Yohimbic acid]
inhibition at 110 µM [1]: 4%
inhibition at 110 µM [2]: 51%

Nc1ncnc2c1ncn2[C@@H]1O[C@H](CO)[C@@H](O)[C@H]1O [Adenosine]
inhibition at 110 µM [1]: 0%
inhibition at 110 µM [2]: 9%

Cc1cc(C2CCCCC2)n(O)c(=O)c1 [Ciclopirox]
inhibition at 110 µM [1]: 42%
inhibition at 110 µM [2]: 41%

C=C1C(=O)O[C@@H]2/C=C(\C)CC/C=C(\C)CC[C@@H]12 [Costunolide]
inhibition at 110 µM [1]: 0%
inhibition at 110 µM [2]: 21%

C/C1=C\CCC2=C[C@@H](OC2=O)c2c(C)coc2C1 [Linderalactone]
inhibition at 110 µM [1]: 0%
inhibition at 110 µM [2]: 45%

C[C@@H]1O[C@@H](O[C@H]2CC[C@]3(C=O)[C@H]4CC[C@]5(C)[C@@H](C6=CC(=O)OC6)CC[C@]5(O)[C@@H]4CC[C@]3(O)C2)[C@H](O)[C@H](O)[C@H]1O [Convallatoxin]
inhibition at 110 µM [1]: 2%
inhibition at 110 µM [2]: 3%

C[C@@H]1O[C@@H](OC[C@H]2O[C@@H](Oc3c(-c4ccc(O)cc4)oc4cc(O)cc(O)c4c3=O)[C@H](O[C@@H]3O[C@H](CO)[C@H](O)[C@H](O)[C@H]3O)[C@@H](O)[C@@H]2O)[C@H](O)[C@H](O)[C@H]1O [Camelliaside A]
inhibition at 110 µM [1]: 9%
inhibition at 110 µM [2]: 10%

O=C1NCN(c2ccccc2)C12CCN(CCCOc1ccc(F)cc1)CC2 [Spiramide]
inhibition at 110 µM [1]: 49%
inhibition at 110 µM [2]: 6%

COc1cc2c(=O)c(-c3ccc(O)cc3)coc2cc1O [Glycitein]
inhibition at 110 µM [1]: 0%
inhibition at 110 µM [2]: 0%

CC(C)[C@H](N)C(=O)O [L-Valine]
inhibition at 110 µM [1]: 0%
inhibition at 110 µM [2]: 12%

COc1ccc2c(OC)c3ccoc3nc2c1OC [Skimmianine]
inhibition at 110 µM [1]: 0%
inhibition at 110 µM [2]: 15%

O=c1ccc2ccc(O)c(O)c2o1 [Daphnetin]
inhibition at 110 µM [1]: 0%
inhibition at 110 µM [2]: 1%

N[C@@H](Cc1c[nH]c2ccccc12)C(=O)O [L-Tryptophan]
inhibition at 110 µM (0 h, read-out: Percentage of motility inhibition 0 h): 26%
inhibition at 110 µM (24 h, read-out: Percentage of motility inhibition 24 h): 3%

C[C@H]1[C@H](C)CC[C@]2(C(=O)O)CC[C@]3(C)C(=CC[C@@H]4[C@@]5(C)C[C@@H](O)[C@H](O)[C@@](C)(CO)[C@@H]5CC[C@]43C)[C@H]12 [Asiatic acid]
inhibition at 110 µM [1]: 41%
inhibition at 110 µM [2]: 55%

O=C1O[C@H]([C@@H](O)CO)C(O)=C1O [L-Ascorbic acid]
inhibition at 110 µM [1]: 5%
inhibition at 110 µM [2]: 9%

CN(C(=O)CN(CCO)CC(=O)N(C)C(C)(C)Cc1ccccc1)C(C)(C)Cc1ccccc1 [Oxethazaine]
inhibition at 110 µM [1]: 44%
inhibition at 110 µM [2]: 25%

Cc1nc(C)c(C)nc1C [Ligustrazine]
inhibition at 110 µM [1]: 0%
inhibition at 110 µM [2]: 2%

CC[C@H]1CN2CC[C@@]3(C(=O)Nc4ccccc43)[C@@H]2C[C@@H]1/C(=C\OC)C(=O)OC [Isorhynchophylline]
inhibition at 110 µM [1]: 0%
inhibition at 110 µM [2]: 0%

C=C1[C@@H]2CC[C@@H]3[C@](C2)(C(=O)[C@@H](O)[C@@H]2C(C)(C)[C@H]4CC(=O)[C@@]32CO4)[C@@H]1OC(C)=O [Maoecrystal A]
inhibition at 110 µM [1]: 7%
inhibition at 110 µM [2]: 2%

CC[C@]12C=CCN3CC[C@]4(C(=C(C(=O)OC)C1)Nc1ccccc14)[C@@H]32 [Tabersonine]
inhibition at 110 µM [1]: 0%
inhibition at 110 µM [2]: 1%

Nc1nc2c(ncn2CCC(CO)CO)c(=O)[nH]1 [Penciclovir]
inhibition at 110 µM [1]: 22%
inhibition at 110 µM [2]: 1%

OC[C@@H](O)[C@@H](O)[C@H](O)[C@@H](O)CO [D-Sorbitol]
inhibition at 110 µM [1]: 0%
inhibition at 110 µM [2]: 7%

COc1cc(-c2coc3cc(O)c(OC)c(O)c3c2=O)cc(O)c1OC [Irigenin]
inhibition at 110 µM [1]: 14%
inhibition at 110 µM [2]: 3%

CNCc1ccccc1 [N‐Methylbenzylamine]
inhibition at 110 µM [1]: 0%
inhibition at 110 µM [2]: 4%

COc1cc(O)c2c(=O)c(O)c(-c3ccc(O)c(O)c3)oc2c1 [Rhamnetin]
inhibition at 110 µM [1]: 29%
inhibition at 110 µM [2]: 12%

COc1cc(O)c2c(=O)c(O[C@@H]3O[C@H](CO)[C@@H](O)[C@H](O)[C@H]3O)c(-c3ccc(O[C@@H]4O[C@H](CO)[C@@H](O)[C@H](O)[C@H]4O)cc3)oc2c1 [Complanatuside]
inhibition at 110 µM [1]: 0%
inhibition at 110 µM [2]: 22%

COC(=O)C1=CO[C@@H](O[C@@H]2O[C@H](CO)[C@@H](O)[C@H](O)[C@H]2O)[C@H]2[C@@H]1[C@H](O)C[C@]2(C)O [Shanzhiside methyl ester]
inhibition at 110 µM [1]: 32%
inhibition at 110 µM [2]: 38%

COC(=O)c1cc(OC)c2c(c1-c1c(CO)cc(OC)c3c1OCO3)OCO2 [Bicyclol]
inhibition at 110 µM [1]: 23%
inhibition at 110 µM [2]: 4%

Nc1nc2c(nc(O)n2[C@@H]2O[C@H](CO)[C@@H](O)[C@H]2O)c(=O)[nH]1 [8‐Hydroxyguanosine]
inhibition at 110 µM [1]: 14%
inhibition at 110 µM [2]: 4%

CC(C)=CCC[C@@H](C)CC=O [(R)-(+)-Citronellal]
inhibition at 110 µM [1]: 0%
inhibition at 110 µM [2]: 8%

COc1ccc2c(c1OC)CC1c3c(cc4c(c3-2)OCO4)CCN1C (stereo not drawn) [Crebanine]
inhibition at 110 µM [1]: 0%
inhibition at 110 µM [2]: 4%

C=C1C=CC(C(C)C)CC1 (stereo not drawn) [β-Phellandrene]
inhibition at 110 µM [1]: 17%
inhibition at 110 µM [2]: 20%

CC(=O)OCC(CCn1cnc2cnc(N)nc21)COC(C)=O [Famciclovir]
inhibition at 110 µM [1]: 15%
inhibition at 110 µM [2]: 2%

C=C1C[C@]2(O)O[C@@]3(CC2=C(C)C)[C@@H](C)CC[C@@H]13 [Isocurcumenol]
inhibition at 110 µM [1]: 5%
inhibition at 110 µM [2]: 24%

COc1ccc(-c2coc3cc(O)ccc3c2=O)cc1 [Formononetin]
inhibition at 110 µM [1]: 6%
inhibition at 110 µM [2]: 31%

COc1cc(O)c2c(c1)O[C@H](c1ccc(O)cc1)CC2=O [Sakuranetin]
inhibition at 110 µM [1]: 19%
inhibition at 110 µM [2]: 18%

CC(C)=CCC[C@](C)(O)[C@H]1CC[C@]2(C)[C@@H]1[C@H](O)C[C@@H]1[C@@]3(C)CC[C@H](O)C(C)(C)[C@@H]3[C@@H](O[C@@H]3O[C@H](CO)[C@@H](O)[C@H](O)[C@H]3O[C@@H]3O[C@@H](C)[C@H](O)[C@@H](O)[C@H]3O)C[C@]12C [Ginsenoside Rg2]
inhibition at 110 µM [1]: 8%
inhibition at 110 µM [2]: 0%

O=c1[nH]cnc2c1ncn2[C@H]1CC[C@@H](CO)O1 [Didanosine]
inhibition at 110 µM [1]: 22%
inhibition at 110 µM [2]: 7%

C=C(C)[C@@H]1CC[C@]2(COC(C)=O)CC[C@]3(C)[C@H](CC[C@@H]4[C@@]5(C)CC[C@H](OC(C)=O)C(C)(C)[C@@H]5CC[C@]43C)[C@@H]12 [Betulin diacetate]
inhibition at 110 µM [1]: 11%
inhibition at 110 µM [2]: 0%

Cc1cn([C@H]2C=C[C@@H](CO)O2)c(=O)[nH]c1=O [Stavudine]
inhibition at 110 µM [1]: 25%
inhibition at 110 µM [2]: 3%

C=C[C@]1(C)C[C@@H](OC(=O)CO)[C@]2(C)[C@H](C)CC[C@]3(CCC(=O)[C@H]32)[C@@H](C)[C@@H]1O [Pleuromutilin]
inhibition at 110 µM [1]: 33%
inhibition at 110 µM [2]: 10%

CCN1C[C@]2(COC)CC[C@H](O)[C@]34C1[C@@](O)([C@@H](OC)[C@H]23)[C@@]1(O)C[C@H](OC)[C@H]2C[C@@H]4[C@@H]1[C@H]2OC [Delsoline]
inhibition at 110 µM [1]: 5%
inhibition at 110 µM [2]: 0%
